In BindingDB's records for doi:10.1111/cbdd.12243 (Shandong Institute of Pharmaceutical Industry, 2014):

Columns and labels:
Experiment in all cases: Z-LYTE biochemical assay
Conditions in all cases: 25 °C
[1] = biological target: Vascular endothelial growth factor receptor 2 (Homo sapiens, UniProt P35968)
Method: (§1) The reaction was stopped by the addition of 5 µL stop reagent.

[2] = biological target: Tyrosine-protein kinase ABL1 (Homo sapiens, UniProt P00519)
Method: as §1

[3] = biological target: Receptor protein-tyrosine kinase (Homo sapiens, UniProt Q504U8)
Method: as §1

Sequence of Vascular endothelial growth factor receptor 2 (P35968 whole entry): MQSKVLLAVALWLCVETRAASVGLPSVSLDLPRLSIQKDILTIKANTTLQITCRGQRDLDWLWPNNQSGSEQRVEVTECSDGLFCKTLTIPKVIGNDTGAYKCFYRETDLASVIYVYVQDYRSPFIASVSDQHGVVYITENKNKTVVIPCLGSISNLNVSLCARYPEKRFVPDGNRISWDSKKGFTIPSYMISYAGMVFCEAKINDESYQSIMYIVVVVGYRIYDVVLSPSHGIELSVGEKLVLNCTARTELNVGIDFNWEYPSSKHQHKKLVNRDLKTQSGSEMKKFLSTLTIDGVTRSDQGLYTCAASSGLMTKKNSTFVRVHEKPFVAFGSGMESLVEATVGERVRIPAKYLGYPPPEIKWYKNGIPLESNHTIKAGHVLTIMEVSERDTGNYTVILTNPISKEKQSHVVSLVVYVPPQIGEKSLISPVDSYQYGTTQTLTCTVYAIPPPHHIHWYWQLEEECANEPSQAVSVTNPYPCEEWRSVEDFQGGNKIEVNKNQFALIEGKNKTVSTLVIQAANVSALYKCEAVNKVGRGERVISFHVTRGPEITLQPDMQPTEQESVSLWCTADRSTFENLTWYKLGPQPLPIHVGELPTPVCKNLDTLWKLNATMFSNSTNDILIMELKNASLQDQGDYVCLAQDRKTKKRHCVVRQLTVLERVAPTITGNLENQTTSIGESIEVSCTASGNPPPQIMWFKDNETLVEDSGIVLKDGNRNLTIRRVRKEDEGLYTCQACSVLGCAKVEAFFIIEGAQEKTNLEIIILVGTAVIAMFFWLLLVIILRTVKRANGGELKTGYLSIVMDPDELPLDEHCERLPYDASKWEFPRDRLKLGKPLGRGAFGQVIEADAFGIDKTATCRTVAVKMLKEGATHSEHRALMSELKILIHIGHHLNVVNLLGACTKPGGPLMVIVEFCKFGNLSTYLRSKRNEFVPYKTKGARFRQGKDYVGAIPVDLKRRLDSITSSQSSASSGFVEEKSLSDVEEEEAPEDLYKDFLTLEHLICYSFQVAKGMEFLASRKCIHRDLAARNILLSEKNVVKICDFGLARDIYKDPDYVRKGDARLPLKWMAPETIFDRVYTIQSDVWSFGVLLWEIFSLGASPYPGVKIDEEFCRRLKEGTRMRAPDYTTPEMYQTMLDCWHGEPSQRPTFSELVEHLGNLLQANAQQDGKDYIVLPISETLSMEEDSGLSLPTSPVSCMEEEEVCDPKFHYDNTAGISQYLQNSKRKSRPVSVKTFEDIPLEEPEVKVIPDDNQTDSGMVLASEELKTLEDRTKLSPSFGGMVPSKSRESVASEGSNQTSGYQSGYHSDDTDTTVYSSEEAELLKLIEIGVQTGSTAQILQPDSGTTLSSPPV
Sequence of Tyrosine-protein kinase ABL1 (P00519 whole entry): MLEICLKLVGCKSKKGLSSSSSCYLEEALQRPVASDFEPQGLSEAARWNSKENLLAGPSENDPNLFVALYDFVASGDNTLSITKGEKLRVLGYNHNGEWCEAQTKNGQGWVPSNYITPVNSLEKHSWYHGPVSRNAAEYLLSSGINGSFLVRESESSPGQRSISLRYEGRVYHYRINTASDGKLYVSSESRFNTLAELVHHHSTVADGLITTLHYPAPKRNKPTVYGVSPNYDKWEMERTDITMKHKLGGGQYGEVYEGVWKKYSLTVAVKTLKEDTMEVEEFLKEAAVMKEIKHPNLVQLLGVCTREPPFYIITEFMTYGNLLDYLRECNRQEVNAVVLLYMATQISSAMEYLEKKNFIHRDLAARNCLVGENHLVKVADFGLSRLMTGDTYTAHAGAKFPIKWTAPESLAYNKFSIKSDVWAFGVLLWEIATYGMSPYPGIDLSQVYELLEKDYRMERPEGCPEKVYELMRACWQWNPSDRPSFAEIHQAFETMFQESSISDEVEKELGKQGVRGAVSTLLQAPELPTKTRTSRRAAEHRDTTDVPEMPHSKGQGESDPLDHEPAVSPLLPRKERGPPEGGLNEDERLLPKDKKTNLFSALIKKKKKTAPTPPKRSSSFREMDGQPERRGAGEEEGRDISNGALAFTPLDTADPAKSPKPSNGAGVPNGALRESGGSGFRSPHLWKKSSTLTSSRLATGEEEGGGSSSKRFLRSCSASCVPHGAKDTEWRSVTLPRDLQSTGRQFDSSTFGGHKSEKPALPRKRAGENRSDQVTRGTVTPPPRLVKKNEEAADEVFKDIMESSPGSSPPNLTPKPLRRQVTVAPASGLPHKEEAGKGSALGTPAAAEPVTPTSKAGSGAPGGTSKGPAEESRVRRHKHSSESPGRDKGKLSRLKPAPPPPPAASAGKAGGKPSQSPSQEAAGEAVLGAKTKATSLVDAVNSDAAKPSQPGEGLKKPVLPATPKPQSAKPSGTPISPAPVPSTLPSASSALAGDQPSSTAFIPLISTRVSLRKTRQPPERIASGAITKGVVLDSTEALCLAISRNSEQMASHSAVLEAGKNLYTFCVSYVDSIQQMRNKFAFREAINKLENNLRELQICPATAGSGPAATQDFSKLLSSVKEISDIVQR
Sequence of Receptor protein-tyrosine kinase (Q504U8 whole entry): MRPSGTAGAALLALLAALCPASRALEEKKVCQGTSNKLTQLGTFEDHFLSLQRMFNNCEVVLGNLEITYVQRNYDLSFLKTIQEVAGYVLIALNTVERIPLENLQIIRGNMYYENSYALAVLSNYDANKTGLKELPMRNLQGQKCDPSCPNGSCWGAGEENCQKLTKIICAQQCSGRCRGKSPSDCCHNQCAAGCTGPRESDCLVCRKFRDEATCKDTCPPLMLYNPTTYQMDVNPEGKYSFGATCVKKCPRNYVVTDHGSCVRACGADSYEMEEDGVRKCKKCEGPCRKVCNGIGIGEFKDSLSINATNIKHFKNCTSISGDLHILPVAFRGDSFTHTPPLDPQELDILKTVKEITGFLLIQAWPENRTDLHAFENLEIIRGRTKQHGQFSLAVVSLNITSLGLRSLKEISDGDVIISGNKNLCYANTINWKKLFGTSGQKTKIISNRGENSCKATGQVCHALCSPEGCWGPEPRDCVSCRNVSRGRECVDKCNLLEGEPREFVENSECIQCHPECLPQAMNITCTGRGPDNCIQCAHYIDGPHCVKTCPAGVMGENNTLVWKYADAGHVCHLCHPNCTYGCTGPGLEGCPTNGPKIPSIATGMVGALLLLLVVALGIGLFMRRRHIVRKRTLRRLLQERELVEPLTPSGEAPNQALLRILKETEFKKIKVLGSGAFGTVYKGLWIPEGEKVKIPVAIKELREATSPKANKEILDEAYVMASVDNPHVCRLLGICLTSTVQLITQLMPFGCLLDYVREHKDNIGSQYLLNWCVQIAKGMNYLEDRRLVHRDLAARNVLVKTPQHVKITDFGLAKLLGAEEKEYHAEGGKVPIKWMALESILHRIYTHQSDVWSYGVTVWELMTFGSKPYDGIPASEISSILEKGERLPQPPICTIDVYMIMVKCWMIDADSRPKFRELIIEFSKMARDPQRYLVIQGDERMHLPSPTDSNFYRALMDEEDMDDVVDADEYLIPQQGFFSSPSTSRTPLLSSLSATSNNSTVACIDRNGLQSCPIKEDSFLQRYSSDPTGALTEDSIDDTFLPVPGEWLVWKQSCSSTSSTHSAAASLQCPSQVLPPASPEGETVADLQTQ

IC50 [1] [nM] | IC50 [2] [nM] | IC50 [3] [nM] | SMILES
1340 | 930 |  | Cc1c2ccc(Nc3ccnc(Nc4ccc(S(=O)(=O)NC(=N)N)cc4)n3)cc2nn1C [N-carbamimidoyl-4-((4-((2,3-dimethyl-2H-indazole-6-yl)amino)pyrimidin-2-yl)amino) benzenesulfonamide (P1g)]
25 | 62 |  | Cc1ccnc(NS(=O)(=O)c2ccc(Nc3nccc(N(C)c4ccc5c(C)n(C)nc5c4)n3)cc2)n1 [4-((4-((2,3-dimethyl-2H-indazole-6-yl)(methyl)amino)pyrimidin-2-yl)amino)-N-(4-methylpyrimidin-2-yl)benzenesulfonamide (P2d)]
12 | 22 |  | Cc1cc(C)nc(NS(=O)(=O)c2ccc(Nc3nccc(N(C)c4ccc5c(C)n(C)nc5c4)n3)cc2)n1 [4-((4-((2,3-dimethyl-2H-indazole-6-yl)(methyl)amino)pyrimidin-2-yl)amino)-N-(4,6-dimethylpyrimidin-2-yl)benzenesulfonamide (P2e)]
720 | 360 | 1370 | Cc1c2ccc(N(C)c3ccnc(Nc4ccc(S(=O)(=O)NC(=N)N)cc4)n3)cc2nn1C [N-carbamimidoyl-4-((4-((2,3-dimethyl-2H-indazole-6-yl)(methyl)amino)pyrimidin-2-yl)amino) benzenesulfonamide (P2g)]
29 | 120 |  | Cc1c2ccc(N(C)c3ccnc(Nc4ccc(S(=O)(=O)Nc5ncccn5)cc4)n3)cc2nn1C [4-((4-((2,3-dimethyl-2H-indazole-6-yl)(methyl)amino)pyrimidin-2-yl)amino)-N-(pyrimidin-2-yl) benzenesulfonamide (P2c)]
120 | 360 |  | Cc1cc(C)nc(NS(=O)(=O)c2ccc(Nc3nccc(Nc4ccc5c(C)n(C)nc5c4)n3)cc2)n1 [4-((4-((2,3-dimethyl-2H-indazole-6-yl)amino)pyrimidin-2-yl)amino)-N-(4,6-dimethylpyrimidin-2-yl)benzenesulfonamide (P1e)]
650 | 320 |  | Cc1cc(NS(=O)(=O)c2ccc(Nc3nccc(N(C)c4ccc5c(C)n(C)nc5c4)n3)cc2)no1 [4-((4-((2,3-dimethyl-2H-indazole-6-yl)(methyl)amino)pyrimidin-2-yl)amino)-N-(5-methylisoxazol-3-yl)benzenesulfonamide (P2f)]
1630 | 2180 |  | Cc1cc(NS(=O)(=O)c2ccc(Nc3nccc(Nc4ccc5c(C)n(C)nc5c4)n3)cc2)no1 [4-((4-((2,3-dimethyl-2H-indazole-6-yl)amino)pyrimidin-2-yl)amino)-N-(5-methylisoxazol-3-yl) benzenesulfonamide (P1f)]
160 | 280 |  | Cc1ccnc(NS(=O)(=O)c2ccc(Nc3nccc(Nc4ccc5c(C)n(C)nc5c4)n3)cc2)n1 [4-((4-((2,3-dimethyl-2H-indazole-6-yl)amino)pyrimidin-2-yl)amino)-N-(4-methylpyrimidin-2-yl) benzenesulfonamide (P1d)]
34 | 460 |  | Cc1c2ccc(Nc3ccnc(Nc4ccc(S(=O)(=O)Nc5ncccn5)cc4)n3)cc2nn1C [4-((4-((2,3-dimethyl-2H-indazole-6-yl)amino)pyrimidin-2-yl)amino)-N-(pyrimidin-2-yl) benzenesulfonamide (P1c)]
